From ChEMBL document CHEMBL3988442, “University of Dundee, Small-Polar-MMV Screening Library” (2021)

Assays:
[1] = In vitro enzyme assay to detect hydrolysis of chlorophenol red-beta-D-[…] directly proportional to the number of Toxoplasma stably expressing beta-galactosidase; type: functional, organism-based, Toxoplasma gondii; settings: for IC50: Toxoplasma gondii
[2] = microbe, parasite or virus in culture; settings: Mycobacterium tuberculosis, 96 h, read-out: pIC50 (converted)
[3] = microbe, parasite or virus in culture; settings: Mycobacterium tuberculosis, 72 h, read-out: pIC50 (converted)
Tryptophan--tRNA ligase = Tryptophan--tRNA ligase (Mycobacterium tuberculosis (strain ATCC 25618 / H37Rv), UniProt P9WFT3); assay: Biochemical assay for Mt-TrpRS; type: functional
Chain of Tryptophan--tRNA ligase (P9WFT3 whole entry): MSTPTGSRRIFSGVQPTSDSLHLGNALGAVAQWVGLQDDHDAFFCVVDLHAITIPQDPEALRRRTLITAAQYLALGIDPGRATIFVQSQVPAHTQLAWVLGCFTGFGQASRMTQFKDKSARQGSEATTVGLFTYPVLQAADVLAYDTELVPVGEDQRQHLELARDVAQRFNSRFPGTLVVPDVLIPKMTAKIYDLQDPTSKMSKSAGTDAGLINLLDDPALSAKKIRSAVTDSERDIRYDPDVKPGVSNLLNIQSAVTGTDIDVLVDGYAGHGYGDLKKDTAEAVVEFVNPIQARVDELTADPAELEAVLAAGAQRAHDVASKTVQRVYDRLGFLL

ClpP1P2 = ClpP1P2 (Mycobacterium tuberculosis (strain ATCC 25618 / H37Rv), UniProt P9WPC3+P9WPC5); assay: in vitro assay to detect presence of AMC directly proportional to the activity of ClpP1P2. GHDDI collaboration.; type: functional
Chain of ClpP1P2 (P9WPC5 whole entry): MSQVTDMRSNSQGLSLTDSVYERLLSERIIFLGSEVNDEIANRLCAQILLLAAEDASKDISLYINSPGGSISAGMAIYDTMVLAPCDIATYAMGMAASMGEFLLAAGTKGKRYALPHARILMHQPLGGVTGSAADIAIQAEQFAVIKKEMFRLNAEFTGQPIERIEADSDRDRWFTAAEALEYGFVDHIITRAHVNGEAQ
Chain of ClpP1P2 (P9WPC3 whole entry): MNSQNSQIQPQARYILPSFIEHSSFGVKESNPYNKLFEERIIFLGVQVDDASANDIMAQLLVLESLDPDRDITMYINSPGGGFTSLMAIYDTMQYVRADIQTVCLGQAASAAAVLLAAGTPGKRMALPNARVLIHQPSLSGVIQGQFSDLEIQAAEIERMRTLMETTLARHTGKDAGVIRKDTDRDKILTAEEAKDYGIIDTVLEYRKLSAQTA

Schistosoma mansoni = assay: High throughput screening of compounds against Schistosoma mansoni motility; type: functional; set-up: dose or concentration left out as unconfirmed
Plasmodium falciparum = assay: Calibr Malaria Delayed Death Assay SOP; type: functional, organism-based; settings: for IC50: Plasmodium falciparum

With Nc1n[nH]c(SCc2ccc3c(c2)OCCO3)n1 the IC50 [1] was over 50.1 µM, the IC50 [2] was over 501 µM and the IC50 [3] was over 501 µM.
NCC(O)c1ccc(-c2ccccc2)cc1 (configuration not stated) gave an IC50 [1] of over 25.1 µM, an IC50 [2] of 97.4 µM and an IC50 [3] of 104 µM.
Work on CO[C@H]1CN(c2ccccc2)S(=O)(=O)[C@@]12CCN(Cc1ccccc1)C2 yielded an IC50 (Tryptophan--tRNA ligase) of over 195 µM.
For CC(O)CN1CCC(=O)N(Cc2ccccc2)Cc2ccccc21 (configuration not stated), the IC50 (Tryptophan--tRNA ligase) was over 195 µM.
Compound COCC(O)CN1CCC(=O)N(Cc2ccco2)Cc2ccccc21 (configuration not stated) has an IC50 (Tryptophan--tRNA ligase) of over 195 µM.
CCCC(O)CN1CC(C)(C)CN(C(=O)CCc2ccccc2)CC1=O (configuration not stated) showed an IC50 (Tryptophan--tRNA ligase) of over 195 µM.
COc1ccccc1C(=O)N1CC(=O)N(CC2CC2)CC(O)C1 (configuration not stated) gave an IC50 (Tryptophan--tRNA ligase) of over 195 µM.
Work on O=C1CN(C(=O)c2cccc(C(F)(F)F)c2)CC(O)CN1CC1CC1 (configuration not stated) yielded an IC50 (Tryptophan--tRNA ligase) of over 195 µM.
Compound N#CCCN1CC(O)CN(C(=O)c2cccc(C(F)(F)F)c2)CC1=O (configuration not stated) has an IC50 (Tryptophan--tRNA ligase) of over 195 µM.
Compound O=C(C1CC1)N1CCN2C[C@@H](CO)[C@H](c3ccccc3)[C@H]2C1 has an IC50 (Tryptophan--tRNA ligase) of over 195 µM.
With CNc1oc(-c2ccc(S(=O)(=O)N(C)C)o2)nc1C#N the IC50 [1] was over 50.1 µM and the IC50 (ClpP1P2) was over 100 µM.
In the case of O=C(CC1CC1)N1CCC2(CC1)C(=O)NCCN2Cc1ccccc1, the IC50 (Tryptophan--tRNA ligase) is reported as over 195 µM.
For COCCN(C)C(=O)c1nc2c(s1)CCCN2C, the IC50 (Tryptophan--tRNA ligase) was over 195 µM.
CC(C)NC(=O)c1nc2c(s1)CCCN2C(C)C showed an IC50 (Tryptophan--tRNA ligase) of over 195 µM.
For O=C([C@H]1COC[C@H]2CN(c3ccncn3)C[C@H]21)N1CCCC1, the IC50 (Tryptophan--tRNA ligase) was over 195 µM.
Compound CO[C@H]1CC[C@H]2[C@H]1OCCN2C(=O)C1=CCCC1 has an IC50 (Tryptophan--tRNA ligase) of over 195 µM.
With Cn1nc(C#N)c2c1CN(C(=O)c1ccco1)CCC2 the IC50 (Tryptophan--tRNA ligase) was over 195 µM.
For COCC1CC2(CCN(C(=O)c3ccc(F)c(Cl)c3)CC2)CO1 (configuration not stated), the IC50 (Tryptophan--tRNA ligase) was over 195 µM.
O=C(c1cnccn1)N1CCC2(CCCN(Cc3ccoc3)C2)C1 (configuration not stated) gave an IC50 (Tryptophan--tRNA ligase) of over 195 µM.
O=C1NCC[C@]12CN(Cc1ccco1)C[C@H]2c1ccccc1 showed an IC50 (Tryptophan--tRNA ligase) of over 195 µM.
For O=S(=O)(NCC1(O)CCOc2ccccc21)c1ccc(Br)s1 (configuration not stated), the IC50 [1] was 7.49 µM and the “Percent Effect” value (Schistosoma mansoni) was -11.19%.
Work on CCCNc1cc(-c2c[nH]nc2C2CCN(C(=O)C3CCC3)C2)ccn1 (configuration not stated) yielded an IC50 [1] of 0.368 µM, a pIC50 (Plasmodium falciparum) of 6.573 and an IC50 (Plasmodium falciparum) of 0.237 µM.
Compound CC(C)Nc1cc(-c2c[nH]nc2C2CCN(C(=O)C3CC3)C2)ccn1 (configuration not stated) has an IC50 [1] of 0.423 µM, a pIC50 (Plasmodium falciparum) of 6.541 and an IC50 (Plasmodium falciparum) of 0.269 µM.
Work on CC(C)CNc1cc(-c2c[nH]nc2C2CCN(C(=O)C3CC3)C2)ccn1 (configuration not stated) yielded an IC50 [1] of 0.274 µM, a pIC50 (Plasmodium falciparum) of 6.615 and an IC50 (Plasmodium falciparum) of 0.233 µM.
CC(C)Nc1cc(-c2c[nH]nc2C2CCN(C(=O)C3CCC3)C2)ccn1 (configuration not stated) gave an IC50 [1] of 0.526 µM, a pIC50 (Plasmodium falciparum) of 6.647 and an IC50 (Plasmodium falciparum) of 0.209 µM.
For CC(C)(C)c1cn2c(n1)C(CNCc1ccccn1)CCC2 (configuration not stated), the IC50 [1] was 2.04 µM, the pIC50 (Plasmodium falciparum) was 6.014 and the IC50 (Plasmodium falciparum) was 0.881 µM.
O=C(CN1CCCC(c2ccn[nH]2)C1)Nc1nc2c(s1)CCC2 (configuration not stated) showed an IC50 [1] of 0.766 µM, a pIC50 (Plasmodium falciparum) of 6.713 and an IC50 (Plasmodium falciparum) of 0.216 µM.
In the case of Cc1cc(C2CCCN(CC(=O)Nc3nc4c(s3)CCC4)C2)n[nH]1 (configuration not stated), the IC50 [1] is reported as 0.781 µM, the pIC50 (Plasmodium falciparum) is reported as 6.771 and the IC50 (Plasmodium falciparum) is reported as 0.185 µM. It also gave an IC50 [2] of 47.2 µM and an IC50 [3] of 37.8 µM.
CCCn1ncc(-c2ccnc(NC3CC(C)(C)NC(C)(C)C3)n2)c1C showed an IC50 [1] of 9.87 µM, a pIC50 (Plasmodium falciparum) of 6.559 and an IC50 (Plasmodium falciparum) of 0.23 µM.
Compound COc1ccc(-c2ccccc2CCN)c(OC)c1OC has an IC50 [1] of 3.52 µM, a pIC50 (Plasmodium falciparum) of 6.053 and an IC50 (Plasmodium falciparum) of 0.762 µM. The IC50 [2] was 25.1 µM and the IC50 [3] was 43.4 µM.
In the case of NCCC(=O)Nc1ccc(-c2ccccc2)cc1, the IC50 (Tryptophan--tRNA ligase) is reported as over 195 µM.
CCNCc1ccc(OCc2ccc3c(c2)OCCO3)cc1.Cl showed a pIC50 [1] of 4.872, an IC50 [1] of 8.2 µM and an IC50 (ClpP1P2) of over 100 µM.
CCOC(=O)C1(Cc2ccccc2-c2ccccc2OC)CCNCC1.Cl showed an IC50 [1] of 13.2 µM, a pIC50 (Plasmodium falciparum) of 6.391 and an IC50 (Plasmodium falciparum) of 0.369 µM.
Cc1ccc(C(CCNCCCN(C)C)C2CCOC(C)(C)C2)cc1.O=C(O)C(=O)O (configuration not stated) showed a pIC50 [1] of 5.301, an IC50 [1] of 5.38 µM and a pIC50 (Plasmodium falciparum) of 6.22. For the same compound, the IC50 (Plasmodium falciparum) was 0.659 µM.
With CCOC1CC2(CCN(Cc3nccn3C)CC2)C1 the IC50 (Tryptophan--tRNA ligase) was over 195 µM.
Cc1noc([C@@H]2C[C@H]3CN(CC4CCOCC4)C[C@H]3O2)n1 gave an IC50 (Tryptophan--tRNA ligase) of over 195 µM.
Work on COCC1CC2(CCN(C(=O)c3cncc(C)c3)CC2)CO1 (configuration not stated) yielded an IC50 (Tryptophan--tRNA ligase) of over 195 µM.
c1cncc(CN2CCc3ncnc(C4CC4)c3CC2)c1 gave an IC50 (Tryptophan--tRNA ligase) of over 195 µM.
NCc1cccc(-c2ccccn2)n1 gave an IC50 [1] of 12.4 µM, an IC50 [2] of 97.6 µM and an IC50 [3] of 109 µM.
For C(Cc1noc(C2CNC2)n1)OCC1CC1, the IC50 [1] was 24.8 µM, the IC50 [2] was 352 µM and the IC50 [3] was 136 µM.
Work on NCCNC(=O)c1ccc(-c2ccc(Cl)cc2)s1 yielded an IC50 [1] of over 25.1 µM, an IC50 [2] of 103 µM and an IC50 [3] of 67.3 µM.
Work on Brc1ccc(N2CCNCC2)nc1 yielded an IC50 [1] of over 50.1 µM, an IC50 [2] of over 501 µM and an IC50 [3] of 185 µM.
For O=C(c1cc(C2CC2)n[nH]1)N1CCC2(CCCO2)CC1, the IC50 [1] was over 50.1 µM, the IC50 [2] was over 501 µM and the IC50 [3] was over 501 µM.
Work on OCCNCCNCc1ccc(-c2cccc(Cl)c2)o1 yielded an IC50 [1] of over 25.1 µM, an IC50 [2] of 253 µM and an IC50 [3] of 84.4 µM.
For COc1ccc(CCN)c(OC)c1, the IC50 [1] was over 50.1 µM, the IC50 [2] was 91.2 µM and the IC50 [3] was 46.8 µM.
With NCCc1ccc(-n2cccn2)cc1 the IC50 [1] was over 50.1 µM, the IC50 [2] was 191 µM and the IC50 [3] was 188 µM.
With Cn1nc2n(c1=O)CCN(Cc1ccc(Br)s1)CC2 the IC50 [1] was over 50.1 µM, the IC50 [2] was over 501 µM and the IC50 [3] was 139 µM.
For NCCC1CSc2ccccc2O1 (configuration not stated), the IC50 [1] was over 50.1 µM, the IC50 [2] was 170 µM and the IC50 [3] was 129 µM.
NC(=O)CCc1ccc(Cl)s1 gave an IC50 [1] of over 50.1 µM, an IC50 [2] of 160 µM and an IC50 [3] of over 501 µM.
With CCCS(=O)(=O)NCC(O)C1CCCC1 (configuration not stated) the IC50 [1] was over 50.1 µM, the IC50 [2] was 268 µM and the IC50 [3] was 294 µM.
In the case of CCOC(=O)C(O)c1cc(Br)c2c(c1)OCO2 (configuration not stated), the IC50 [1] is reported as over 50.1 µM, the IC50 [2] is reported as over 501 µM and the IC50 [3] is reported as 223 µM.
In the case of Nc1nc(N)nc(CN2CCCC2c2cccs2)n1 (configuration not stated), the IC50 [1] is reported as over 50.1 µM, the IC50 [2] is reported as over 501 µM and the IC50 [3] is reported as 171 µM.
CC1CCN(C(=O)CSc2nncs2)CC1 gave an IC50 [1] of over 50.1 µM, an IC50 [2] of 23.8 µM and an IC50 [3] of 22.7 µM.
With c1ccc(COCCc2noc(C3CNC3)n2)cc1 the IC50 [1] was 24.9 µM, the IC50 [2] was 270 µM and the IC50 [3] was 222 µM.
CC(C)Sc1ccccc1NS(=O)(=O)N(C)C showed an IC50 [1] of over 50.1 µM, an IC50 [2] of 252 µM and an IC50 [3] of 173 µM.
COC(=O)c1[nH]cc(-c2ccccc2)c1N gave an IC50 [1] of over 50.1 µM, an IC50 [2] of 172 µM and an IC50 [3] of 196 µM.
For Cc1cccc(OCCc2noc(C3CNC3)n2)c1, the IC50 [1] was 8.49 µM, the IC50 [2] was 163 µM and the IC50 [3] was 89.2 µM.
For NCCC(=O)N1CCCC(CCc2ccc(F)cc2)C1 (configuration not stated), the IC50 [1] was over 50.1 µM, the IC50 [2] was 479 µM and the IC50 [3] was 204 µM.
COc1ccc(S(=O)(=O)N(C)C)cc1NCC1CC1 showed an IC50 [1] of over 50.1 µM, an IC50 [2] of over 501 µM and an IC50 [3] of 299 µM.
Work on C1CCC(COCCc2noc(C3CNC3)n2)C1 yielded an IC50 [1] of 19.5 µM, an IC50 [2] of over 501 µM and an IC50 [3] of 96.5 µM.
Compound CCC(C#N)NC(=O)c1cnc(OC(C)C)c(Cl)c1 (configuration not stated) has an IC50 [1] of over 50.1 µM, an IC50 [2] of 291 µM and an IC50 [3] of 131 µM.
With OCc1cc2ccccc2nc1N1CCSCC1 the IC50 [1] was over 50.1 µM, the IC50 [2] was 282 µM and the IC50 [3] was 238 µM.
Work on c1ccc(C2CNCCCO2)cc1 (configuration not stated) yielded an IC50 [1] of over 50.1 µM, an IC50 [2] of 306 µM and an IC50 [3] of 166 µM.
Compound CN(C)C(=O)Nc1cc(F)cc(F)c1 has an IC50 [1] of 2.1 µM, an IC50 [2] of 30.6 µM and an IC50 [3] of 30.2 µM.
For Cc1ccc(F)cc1S(=O)(=O)N1C[C@H](C2CC2)[C@@H](N)C1, the IC50 [1] was over 50.1 µM, the IC50 [2] was over 501 µM and the IC50 [3] was 259 µM.
In the case of COCCNc1nnc(SCc2ccc(Br)cn2)s1, the IC50 [1] is reported as over 50.1 µM, the IC50 [2] is reported as over 501 µM and the IC50 [3] is reported as 276 µM.
